Laboratory results: patent US8895743B2, “Methysergide derivatives” (Map Pharmaceuticals, Inc., priority 2012, dated 2014)
pEC50, pIC50: −log10 of the molar value.

Experiments:
Adenosine A2a = target: T1, Adenosine A2a (Homo sapiens, UniProt P29274); experiment: cAMP HTRF assay, adenosine A2a; assay type: cell-based; settings: HEK293, human receptor
T1 construct: expressed in transfected cells
Protocol: (§1) Receptor agonist/[…] assays were performed using 2-CF3-sergide. Table 1 summarizes the cell lines (CHO-K1/HEK293 transfected with relevant human receptor) and the assays performed to detect any agonist or antagonist activity.
(§2) cAMP HTRF (Gs) studies were conducted to monitor activity for 8′OH-2CF3-dihydroergotamine (8′OH-2CF3-DHE) against the receptors indicated in Table 1 above. […] Lysis buffer was added and after a 1 hour incubation, cAMP concentrations was determined according to the manufacturer specification with the HTRF kit. […] Lysis buffer was added and after a 1 hour incubation, cAMP concentrations were determined according to the manufacturer specification, with the HTRF kit.
as §2, with “(Gi)” for “(Gs)”

Neurokinin (NK1/NK2/NK3) = experiment: Aequorin assays, neurokinin receptors; assay type: cell-based; settings: CHO-AEQ, human receptors, antagonist mode; cell names OP2; read-out: Activity (Antagonism: IC50), OP2, in row Neurokinin (NK1/NK2/NK3)
Protocol: as §1
(§3) Aequorin assays were conducted to monitor activity for 8′OH-2CF3-dihydroergotamine (8′OH-2CF3-DHE) against the receptors indicated in Table 1 above (except for mGlu3 and mGlu5). CHO-K1 cells coexpressing mitochondrial apoaequorin and the recombinant human receptor of interest were grown to mid-log phase in culture media without antibiotics and then detached with PBS-EDTA, centrifuged and resuspended in assay buffer (DMEM/HAM's F12 with HEPES, without phenol red+0.1% BSA, protease free) at a concentration of 1×10^6 cell/mL. […]
(§4) 50 μL of the cell suspension was mixed with 50 μL of test or reference agonist in a 96-well plate. The resulting emission of light was recorded using Hamamatsu Functional Drug Screening System 6000 (FDSS 6000) luminometer. […]
(§5) To standardize the emission of recorded light (and determine of the “100% signal”) across plates and across different experiments, some wells contained 100 μM digitonin or a saturating concentration of ATP (20 μM).

Adrenergic α1D = target: T2, Adrenergic α1D (Homo sapiens, UniProt P25100); experiment: Aequorin agonist/antagonist assay, adrenergic α1D; assay type: cell-based; settings: CHO-K1 mAeq, human receptor, antagonist mode; read-out: Activity (Antagonism: IC50), Adrenergic a1D
T2 construct: expressed in transfected cells; host or cells: CHO-K1 mAeq
T2 sequence (P25100 whole entry): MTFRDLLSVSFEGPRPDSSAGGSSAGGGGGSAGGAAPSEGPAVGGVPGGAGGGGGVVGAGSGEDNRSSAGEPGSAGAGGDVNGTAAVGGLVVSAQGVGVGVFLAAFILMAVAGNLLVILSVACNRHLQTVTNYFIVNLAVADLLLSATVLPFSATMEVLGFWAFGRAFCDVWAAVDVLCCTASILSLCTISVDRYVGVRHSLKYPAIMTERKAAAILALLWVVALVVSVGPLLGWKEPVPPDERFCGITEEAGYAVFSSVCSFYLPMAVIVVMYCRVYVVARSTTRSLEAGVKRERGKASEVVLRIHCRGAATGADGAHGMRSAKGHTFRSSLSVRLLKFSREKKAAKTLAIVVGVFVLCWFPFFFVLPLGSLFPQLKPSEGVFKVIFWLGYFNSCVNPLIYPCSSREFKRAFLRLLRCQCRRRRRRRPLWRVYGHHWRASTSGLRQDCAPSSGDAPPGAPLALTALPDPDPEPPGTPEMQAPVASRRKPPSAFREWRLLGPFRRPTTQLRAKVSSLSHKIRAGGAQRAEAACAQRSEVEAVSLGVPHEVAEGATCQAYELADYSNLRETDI
Protocol: as §1, §3, §4, §5

[1] = system: Cholecystokinin (CCK1/CCK2); experiment: Aequorin assays, cholecystokinin receptors; assay type: cell-based; settings: CHO-AEQ, human receptors
Protocol: as §1, §3, §4, §5

Dopamine D2L = target: T3, Dopamine D2L (Homo sapiens, UniProt P14416); experiment: GTPγ[35S] assay, dopamine D2L; assay type: biochemical
T3 construct: expressed in transfected cells; host or cells: CHO-K1 (membrane extracts)
T3 sequence (P14416 whole entry): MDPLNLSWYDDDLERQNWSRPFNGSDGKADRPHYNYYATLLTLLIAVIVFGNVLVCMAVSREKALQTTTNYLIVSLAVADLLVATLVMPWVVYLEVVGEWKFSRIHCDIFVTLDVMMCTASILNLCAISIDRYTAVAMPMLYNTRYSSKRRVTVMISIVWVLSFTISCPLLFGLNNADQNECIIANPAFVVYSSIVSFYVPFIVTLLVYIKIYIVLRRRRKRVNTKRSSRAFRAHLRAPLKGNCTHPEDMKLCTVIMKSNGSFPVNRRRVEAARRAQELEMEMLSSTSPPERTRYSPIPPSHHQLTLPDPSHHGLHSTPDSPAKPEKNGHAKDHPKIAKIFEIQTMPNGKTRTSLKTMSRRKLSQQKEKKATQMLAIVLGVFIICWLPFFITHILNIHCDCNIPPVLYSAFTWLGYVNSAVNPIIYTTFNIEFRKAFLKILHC
Protocol: as §1
(§6) GTPγS studies were conducted to monitor agonist activity for 8′OH-2CF3-dihydroergotamine (8′OH-2CF3-DHE) against the receptors indicated in Table 1 above. Reagents used were the following: Assay buffer (20 mM HEPES, pH 7.4; 100 mM NaCl; 10 μg/mL saponin; 30 mM MgCl2); Membranes (recombinant human receptor membrane extracts were thawed on ice and diluted in assay buffer to give 1000 μg/mL ([…]) and kept on ice); GDP (diluted in assay buffer to give 30 μM solution (3 μM final concentration); beads (PVT-WGA (Amersham, RPNQ001), diluted in assay buffer at 25 mg/mL (0.25 mg/10 μL)); GTPγ^35S (Perkin Elmer, NEG030X), diluted in assay buffer to give 0.1 nM (final concentration); and ligand (agonist/antagonist diluted in assay buffer).
(§7) Membranes were mixed with GDP (1:1) and incubated for at least 15 minutes on ice. In parallel GTPγ^35S was mixed with the beads (1:1) just before starting the reaction. […] The plates were then centrifuged for 10 minutes at 2000 rpm and incubated at room temperature for 1 hour and counted for 1 min/well with a Perkin Elmer TopCount reader.

Serotonin 5-HT1F = target: T4, Serotonin 5-HT1F (Homo sapiens, UniProt P30939); experiment: cAMP HTRF assay, serotonin 5-HT1F; assay type: cell-based; settings: CHO-K1, human receptor, agonist mode; read-out: Activity (Agonism: EC50), 5-HT1F
T4 construct: expressed in transfected cells; host or cells: CHO-K1
Protocol: as §1, §2
as §2, with “(Gi)” for “(Gs)”

Adrenergic α2B = target: T5, Adrenergic α2B (Homo sapiens, UniProt P18089); experiment: GTPγ[35S] assay, adrenergic α2B; assay type: biochemical; settings: CHO-K1 human receptor membranes, antagonist mode; read-out: Activity (Antagonism: IC50), Adrenergic a2B
T5 construct: expressed in transfected cells; host or cells: CHO-K1 (membrane extracts)
T5 sequence (P18089 whole entry): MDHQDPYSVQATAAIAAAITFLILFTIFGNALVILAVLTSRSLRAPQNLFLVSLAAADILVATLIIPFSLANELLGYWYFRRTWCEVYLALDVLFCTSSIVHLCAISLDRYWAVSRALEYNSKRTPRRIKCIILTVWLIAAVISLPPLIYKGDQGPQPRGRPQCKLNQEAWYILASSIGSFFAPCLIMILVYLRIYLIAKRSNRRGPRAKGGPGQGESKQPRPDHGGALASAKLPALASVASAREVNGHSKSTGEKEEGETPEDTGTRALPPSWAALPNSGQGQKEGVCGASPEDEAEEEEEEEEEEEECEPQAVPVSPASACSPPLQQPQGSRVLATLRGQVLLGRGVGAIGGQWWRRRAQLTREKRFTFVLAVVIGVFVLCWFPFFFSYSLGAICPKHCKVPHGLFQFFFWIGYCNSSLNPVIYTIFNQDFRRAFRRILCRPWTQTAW
Protocol: as §1, §6, §7

[2] = system: VIP/PACAP (PAC1/VPAC/VPAC2); experiment: Aequorin assays, VIP/PACAP receptors; assay type: cell-based; settings: CHO-AEQ, human receptors
Protocol: as §1, §3, §4, §5

Adrenergic α2C = target: T6, Adrenergic α2C (Homo sapiens, UniProt P18825); experiment: GTPγ[35S] assay, adrenergic α2C; assay type: biochemical; settings: CHO-K1 human receptor membranes, antagonist mode; read-out: Activity (Antagonism: IC50), Adrenergic a2C
T6 construct: expressed in transfected cells; host or cells: CHO-K1 (membrane extracts)
Protocol: as §1, §6, §7

Serotonin 5-HT1D = target: T7, Serotonin 5-HT1D (Homo sapiens, UniProt P28221); experiment: GTPγ[35S] assay, serotonin 5-HT1D; assay type: biochemical; settings: CHO-K1 human receptor membranes, agonist mode; read-out: Activity (Agonism: EC50), 5-HT1D
T7 construct: expressed in transfected cells; host or cells: CHO-K1 (membrane extracts)
Protocol: as §1, §6, §7

Serotonin 5-HT2A = target: T8, Serotonin 5-HT2A (Homo sapiens, UniProt P28223); experiment: Aequorin assay, serotonin 5-HT2A; assay type: cell-based; settings: CHO-K1 mAeq Gα16, human receptor, agonist mode; read-out: Activity (Agonism: EC50), 5-HT2A
T8 construct: expressed in transfected cells; host or cells: CHO-K1 mAeq Gα16
Protocol: as §1, §3, §4, §5

Opioid (OP1/OP2/OP3) = experiment: GTPγ[35S] assays, opioid receptors; assay type: biochemical; settings: CHO-K1 human receptor membranes
Protocol: as §1, §6, §7

Orexin (OX1/OX2) = experiment: Aequorin assays, orexin receptors; assay type: cell-based; settings: CHO-AEQ, human receptors
Protocol: as §1, §3, §4, §5

Serotonin 5-HT3 = target: T9, Serotonin 5-HT3 (Homo sapiens, UniProt P46098); experiment: Aequorin assay, serotonin 5-HT3; assay type: cell-based; settings: HEK-293 mAeq, human receptor, antagonist mode; read-out: Activity (Antagonism: IC50), 5-HT3
T9 construct: expressed in transfected cells; host or cells: HEK-293 mAeq
T9 sequence (P46098 24-478): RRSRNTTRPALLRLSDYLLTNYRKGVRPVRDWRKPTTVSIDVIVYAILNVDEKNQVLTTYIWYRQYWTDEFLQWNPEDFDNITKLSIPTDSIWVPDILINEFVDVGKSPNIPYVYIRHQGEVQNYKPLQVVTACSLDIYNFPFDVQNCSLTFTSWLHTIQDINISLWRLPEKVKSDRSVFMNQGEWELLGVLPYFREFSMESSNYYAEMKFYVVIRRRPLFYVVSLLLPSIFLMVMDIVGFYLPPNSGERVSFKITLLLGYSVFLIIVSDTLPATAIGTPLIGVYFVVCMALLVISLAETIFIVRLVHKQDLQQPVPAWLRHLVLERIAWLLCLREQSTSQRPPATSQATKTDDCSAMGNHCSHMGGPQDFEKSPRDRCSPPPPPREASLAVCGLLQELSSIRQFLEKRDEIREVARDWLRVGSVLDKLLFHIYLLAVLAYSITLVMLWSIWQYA
Protocol: as §1, §3, §4, §5

Adrenergic α1B = target: T10, Adrenergic α1B (Homo sapiens, UniProt P35368); experiment: Aequorin agonist/antagonist assay, adrenergic α1B; assay type: cell-based; settings: CHO-K1 mAeq, human receptor, antagonist mode; read-out: Activity (Antagonism: IC50), Adrenergic a1B
T10 construct: expressed in transfected cells; host or cells: CHO-K1 mAeq
Protocol: as §1, §3, §4, §5

Dopamine D4 = target: T11, Dopamine D4 (Homo sapiens, UniProt P21917); experiment: GTPγ[35S] assay, dopamine D4; assay type: biochemical
T11 construct: expressed in transfected cells; host or cells: CHO-K1 (membrane extracts)
T11 sequence (P21917 whole entry): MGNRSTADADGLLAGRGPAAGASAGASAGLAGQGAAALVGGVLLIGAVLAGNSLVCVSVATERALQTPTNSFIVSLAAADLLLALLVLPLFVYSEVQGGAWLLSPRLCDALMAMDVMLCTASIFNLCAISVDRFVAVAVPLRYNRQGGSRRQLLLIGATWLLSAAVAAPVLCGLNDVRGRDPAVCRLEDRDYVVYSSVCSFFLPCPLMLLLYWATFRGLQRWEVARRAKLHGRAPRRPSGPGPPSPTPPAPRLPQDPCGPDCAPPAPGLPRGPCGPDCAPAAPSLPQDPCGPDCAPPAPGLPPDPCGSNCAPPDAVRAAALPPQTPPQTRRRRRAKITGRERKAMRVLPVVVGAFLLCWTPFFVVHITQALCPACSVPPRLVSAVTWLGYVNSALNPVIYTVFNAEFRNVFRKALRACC
Protocol: as §1, §6, §7

Dopamine D1 = target: T12, Dopamine D1 (Homo sapiens, UniProt P21728); experiment: cAMP HTRF assay, dopamine D1; assay type: cell-based; settings: CHO-K1, human receptor, agonist mode; read-out: Activity (Agonism: EC50), D1
T12 construct: expressed in transfected cells; host or cells: CHO-K1
Protocol: as §1, §2
as §2, with “(Gi)” for “(Gs)”

Dopamine D3 = target: T13, Dopamine D3 (Homo sapiens, UniProt P35462); experiment: GTPγ[35S] assay, dopamine D3; assay type: biochemical
T13 construct: expressed in transfected cells; host or cells: CHO-K1 (membrane extracts)
T13 sequence (P35462 whole entry): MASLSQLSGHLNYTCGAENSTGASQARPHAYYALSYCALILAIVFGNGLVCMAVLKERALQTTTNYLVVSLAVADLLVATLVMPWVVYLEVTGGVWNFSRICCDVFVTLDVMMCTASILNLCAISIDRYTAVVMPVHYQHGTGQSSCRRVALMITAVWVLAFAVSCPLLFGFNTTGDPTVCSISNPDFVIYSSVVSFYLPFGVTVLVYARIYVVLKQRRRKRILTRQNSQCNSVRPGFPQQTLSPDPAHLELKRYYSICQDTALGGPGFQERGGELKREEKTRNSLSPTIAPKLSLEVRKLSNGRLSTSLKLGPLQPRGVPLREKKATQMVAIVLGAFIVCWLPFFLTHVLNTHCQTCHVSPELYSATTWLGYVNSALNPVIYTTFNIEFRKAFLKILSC
Protocol: as §1, §6, §7

Adrenergic α2A = target: T14, Adrenergic α2A (Homo sapiens, UniProt P08913); experiment: GTPγ[35S] assay, adrenergic α2A; assay type: biochemical; settings: CHO-K1 human receptor membranes, antagonist mode; read-out: Activity (Antagonism: IC50), Adrenergic a2A
T14 construct: expressed in transfected cells; host or cells: CHO-K1 (membrane extracts)
Protocol: as §1, §6, §7

Adrenergic α1A = target: T15, Adrenergic α1A (Homo sapiens, UniProt P35348); experiment: Aequorin agonist/antagonist assay, adrenergic α1A; assay type: cell-based; settings: CHO-K1 mAeq, human receptor, antagonist mode; read-out: Activity (Antagonism: IC50), Adrenergic a1A
T15 construct: expressed in transfected cells; host or cells: CHO-K1 mAeq
Protocol: as §1, §3, §4, §5

Serotonin 5-HT1B = target: T16, Serotonin 5-HT1B (Homo sapiens, UniProt P28222); experiment: GTPγ[35S] assay, serotonin 5-HT1B; assay type: biochemical; settings: CHO-K1 human receptor membranes, agonist mode; read-out: Activity (Agonism: EC50), 5-HT1B
T16 construct: expressed in transfected cells; host or cells: CHO-K1 (membrane extracts)
T16 sequence (P28222 whole entry): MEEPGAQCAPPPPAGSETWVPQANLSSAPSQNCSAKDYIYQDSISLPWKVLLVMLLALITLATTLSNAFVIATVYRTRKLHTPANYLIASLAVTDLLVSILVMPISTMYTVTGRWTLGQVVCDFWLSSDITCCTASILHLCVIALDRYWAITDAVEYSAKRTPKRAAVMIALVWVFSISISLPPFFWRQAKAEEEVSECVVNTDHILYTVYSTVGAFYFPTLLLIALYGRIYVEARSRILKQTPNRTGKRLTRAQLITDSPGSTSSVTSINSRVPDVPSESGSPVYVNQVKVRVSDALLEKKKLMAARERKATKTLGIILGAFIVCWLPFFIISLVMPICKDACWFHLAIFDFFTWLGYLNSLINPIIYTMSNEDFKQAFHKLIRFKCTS
Protocol: as §1, §6, §7

Calcitonin (CGRP) = target: T17, Calcitonin (CGRP) (Homo sapiens, UniProt O60894+Q16602); experiment: Aequorin assay, CGRP receptor; assay type: cell-based; settings: CHO-AEQ
T17 construct: expressed in transfected cells; host or cells: CHO-AEQ
Protocol: as §1, §3, §4, §5

Serotonin 5-HT2B = target: T18, Serotonin 5-HT2B (Homo sapiens, UniProt P41595); experiment: Aequorin assay, serotonin 5-HT2B; assay type: cell-based
T18 construct: expressed in transfected cells; host or cells: CHO-K1 mAeq Gα16
T18 sequence (P41595 whole entry): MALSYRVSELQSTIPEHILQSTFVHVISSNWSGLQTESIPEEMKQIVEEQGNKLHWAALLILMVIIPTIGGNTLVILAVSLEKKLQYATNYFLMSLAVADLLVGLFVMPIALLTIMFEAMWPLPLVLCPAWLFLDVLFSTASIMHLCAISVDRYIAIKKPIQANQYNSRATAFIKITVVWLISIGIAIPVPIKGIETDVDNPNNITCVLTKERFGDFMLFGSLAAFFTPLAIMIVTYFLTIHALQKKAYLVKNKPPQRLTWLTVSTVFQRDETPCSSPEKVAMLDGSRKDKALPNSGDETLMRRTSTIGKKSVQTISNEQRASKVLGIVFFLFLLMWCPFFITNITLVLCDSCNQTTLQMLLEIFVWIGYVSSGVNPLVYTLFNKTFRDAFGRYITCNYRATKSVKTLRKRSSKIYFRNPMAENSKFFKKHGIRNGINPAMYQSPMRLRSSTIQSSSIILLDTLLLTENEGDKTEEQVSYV
Protocol: as §1, §3, §4, §5

Serotonin 5-HT1A = target: T19, Serotonin 5-HT1A (Homo sapiens, UniProt P08908); experiment: GTPγ[35S] assay, serotonin 5-HT1A; assay type: biochemical
T19 construct: expressed in transfected cells; host or cells: CHO-K1 (membrane extracts)
T19 sequence (P08908 whole entry): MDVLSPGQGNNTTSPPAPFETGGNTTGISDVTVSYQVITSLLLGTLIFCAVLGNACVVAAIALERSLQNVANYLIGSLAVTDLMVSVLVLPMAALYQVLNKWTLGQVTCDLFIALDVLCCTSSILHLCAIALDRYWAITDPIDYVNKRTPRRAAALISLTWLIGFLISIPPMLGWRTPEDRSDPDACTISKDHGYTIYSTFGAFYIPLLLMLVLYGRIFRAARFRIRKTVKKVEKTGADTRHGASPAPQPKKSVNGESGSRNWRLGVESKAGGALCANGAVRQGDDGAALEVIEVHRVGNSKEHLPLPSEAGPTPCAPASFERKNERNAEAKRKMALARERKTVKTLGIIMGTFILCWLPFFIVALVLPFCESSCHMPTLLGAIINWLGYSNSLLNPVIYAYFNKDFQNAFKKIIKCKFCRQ
Protocol: as §1, §6, §7

Calcitonin (AM1/AM2) = experiment: cAMP HTRF assays, calcitonin AM1/AM2 receptors; assay type: cell-based; settings: CHO-K1, human receptors
Protocol: as §1, §2
as §2, with “(Gi)” for “(Gs)”

mGlu7 = target: T20, mGlu7 (Homo sapiens, UniProt Q14831); experiment: cAMP HTRF assay, mGluR7; assay type: cell-based; settings: CHO-K1, human receptor, agonist mode; read-out: Activity (Agonism: EC50), mGlu7
T20 construct: expressed in transfected cells; host or cells: CHO-K1
T20 sequence (Q14831 35-915): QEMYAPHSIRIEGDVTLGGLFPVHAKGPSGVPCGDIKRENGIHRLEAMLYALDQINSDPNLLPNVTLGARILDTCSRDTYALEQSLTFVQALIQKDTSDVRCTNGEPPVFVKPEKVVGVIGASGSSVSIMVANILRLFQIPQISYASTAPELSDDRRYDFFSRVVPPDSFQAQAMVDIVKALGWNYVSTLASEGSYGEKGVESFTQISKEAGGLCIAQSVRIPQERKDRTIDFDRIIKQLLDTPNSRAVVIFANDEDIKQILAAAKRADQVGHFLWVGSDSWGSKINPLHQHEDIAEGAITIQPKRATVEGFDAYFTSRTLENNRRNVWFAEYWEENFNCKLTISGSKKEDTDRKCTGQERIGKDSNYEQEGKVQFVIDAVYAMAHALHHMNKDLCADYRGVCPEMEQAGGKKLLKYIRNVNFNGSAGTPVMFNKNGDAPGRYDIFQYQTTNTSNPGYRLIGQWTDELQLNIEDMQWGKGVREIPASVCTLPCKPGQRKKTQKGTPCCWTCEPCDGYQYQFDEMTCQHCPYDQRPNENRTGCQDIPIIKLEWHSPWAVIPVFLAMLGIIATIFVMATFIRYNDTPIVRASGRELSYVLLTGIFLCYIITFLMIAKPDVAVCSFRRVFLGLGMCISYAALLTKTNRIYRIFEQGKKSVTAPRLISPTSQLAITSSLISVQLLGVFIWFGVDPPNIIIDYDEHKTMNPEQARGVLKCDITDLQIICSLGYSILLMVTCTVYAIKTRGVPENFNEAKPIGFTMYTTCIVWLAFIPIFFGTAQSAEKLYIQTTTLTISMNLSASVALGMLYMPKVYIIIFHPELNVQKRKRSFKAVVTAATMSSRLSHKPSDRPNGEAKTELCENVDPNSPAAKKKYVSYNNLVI
Protocol: as §1, §2
as §2, with “(Gi)” for “(Gs)”

Somatostatin (SST1~SSTS) = experiment: GTPγ[35S] assays, somatostatin receptors; assay type: biochemical; settings: CHO-K1 human receptor membranes
Protocol: as §1, §6, §7

SMILES: CC[C@@H](CO)NC(=O)[C@@H]1C=C2c3cccc4[nH]c(C(F)(F)F)c(c34)C[C@H]2N(C)C1 [2-CF3-sergide]
- Activity (Agonism: EC50; Antagonism: IC50), Adenosine A2a (Adenosine A2a): Inactive
- pIC50 (Neurokinin (NK1/NK2/NK3)): < 6.00
- pIC50 (Adrenergic α1D): 7.42
- Activity (Agonism: EC50; Antagonism: IC50), Cholecystokinin (CCK1/CCK2) [1]: Inactive
- pIC50 (Dopamine D2L; CHO-K1 human receptor membranes, antagonist mode, read-out: Activity (Antagonism: IC50), D2L): < 6.00
- Receptor activity at the D2L dopaminergic receptor (in words) (Dopamine D2L; summary of Table 2): receptor antagonism
- pEC50 (Serotonin 5-HT1F): 6.60
- pIC50 (Adrenergic α2B): < 6.00
- Activity (Agonism: EC50; Antagonism: IC50), VIP/PACAP (PAC1/VPAC/VPAC2) [2]: Inactive
- pIC50 (Adrenergic α2C): < 5.00
- pEC50 (Serotonin 5-HT1D): 7.01
- pEC50 (Serotonin 5-HT2A): 5.96
- Activity (Agonism: EC50; Antagonism: IC50), Opioid (OP1/OP2/OP3) (Opioid (OP1/OP2/OP3)): Inactive
- Activity (Agonism: EC50; Antagonism: IC50), Orexin (OX1/OX2) (Orexin (OX1/OX2)): Inactive
- pIC50 (Serotonin 5-HT3): < 6.00
- pIC50 (Adrenergic α1B): < 6.00
- pIC50 (Dopamine D4; CHO-K1 human receptor membranes, antagonist mode, read-out: Activity (Antagonism: IC50), D4): < 6.00
- Receptor activity at the D4 dopaminergic receptor (in words) (Dopamine D4; summary of Table 2): receptor antagonism
- pEC50 (Dopamine D1): 6.59
- pIC50 (Dopamine D3; CHO-K1 human receptor membranes, antagonist mode, read-out: Activity (Antagonism: IC50), D3): < 6.00
- Receptor activity at the D3 dopaminergic receptor (in words) (Dopamine D3; summary of Table 2): receptor antagonism
- pIC50 (Adrenergic α2A): < 5.00
- pIC50 (Adrenergic α1A): < 5.00
- pEC50 (Serotonin 5-HT1B): 6.89
- Activity (Agonism: EC50; Antagonism: IC50), Calcitonin (CGRP) (Calcitonin (CGRP)): Inactive
- pIC50 (Serotonin 5-HT2B; CHO-K1 mAeq Gα16, human receptor, antagonist mode, read-out: Activity (Antagonism: IC50), 5-HT2B): 7.38
- Receptor activity at the 5-HT2B receptor (in words) (Serotonin 5-HT2B; summary of Table 2): full receptor antagonism
- pEC50 (Serotonin 5-HT1A; CHO-K1 human receptor membranes, agonist mode, read-out: Activity (Agonism: EC50), 5-HT1A): 6.59
- Receptor activity on the 5-HT1A receptor (in words) (Serotonin 5-HT1A; summary of Table 2): agonistic activity
- Activity (Agonism: EC50; Antagonism: IC50), Calcitonin (AM1/AM2) (Calcitonin (AM1/AM2)): Inactive
- pEC50 (mGlu7): 7.33
- Activity (Agonism: EC50; Antagonism: IC50), Somatostatin (SST1~SSTS) (Somatostatin (SST1~SSTS)): Inactive
